≈ marks a conversion by molar mass, not a printed value.
Columns and labels:
Type in all cases: functional
Pseudomonas aeruginosa [1] = assay: Antimicrobial activity against mucA::lox, mutS::lox-deficient Pseudomonas aeruginosa PAOMSAB biofilm harboring nfxB C25T mutant gene selected at 1 ug/ml of azithromycin after 2 passages by Etest method
Pseudomonas aeruginosa [2] = assay: Antimicrobial activity against mucA::lox-deficient Pseudomonas aeruginosa PAOMA biofilm by Etest method
Pseudomonas aeruginosa [3] = assay: Antimicrobial activity against mutS::lox,mexD::lox-deficient Pseudomonas aeruginosa PAOMSMxD biofilm by Etest method
Pseudomonas aeruginosa [4] = assay: Antimicrobial activity against mutS::lox-deficient Pseudomonas aeruginosa PAOMSA biofilm harboring nfxB T533C mutant gene selected at 4 ug/ml of azithromycin after 2 passages by Etest method
Pseudomonas aeruginosa [5] = assay: Antimicrobial activity against mucA::lox, mutS::lox-deficient Pseudomonas aeruginosa PAOMSA biofilm by Etest method
Pseudomonas aeruginosa [6] = assay: Antimicrobial activity against nfxB gene-deficient Pseudomonas aeruginosa PAONB biofilm by Etest method
Pseudomonas aeruginosa [7] = assay: Antimicrobial activity against mutS::lox-deficient Pseudomonas aeruginosa PAOMSA biofilm harboring nfxB G461A mutant gene selected at 4 ug/ml of azithromycin after 5 passages by Etest method
Pseudomonas aeruginosa [8] = assay: Antimicrobial activity against Pseudomonas aeruginosa PAO1 biofilm by Etest method
Pseudomonas aeruginosa [9] = assay: Antimicrobial activity against mucA::lox, mutS::lox-deficient Pseudomonas aeruginosa PAOMSAB biofilm harboring nfxB T544C mutant gene selected at 4 ug/ml of azithromycin after 1 passages by Etest method
Pseudomonas aeruginosa [10] = assay: Antimicrobial activity against mutS::lox-deficient Pseudomonas aeruginosa PAOMSA biofilm harboring nfxB T86C mutant gene selected at 4 ug/ml of azithromycin after 4 passages by Etest method
Pseudomonas aeruginosa [11] = assay: Antimicrobial activity against mutS::lox-deficient Pseudomonas aeruginosa PAOMSA biofilm harboring nfxB G539A mutant gene selected at 4 ug/ml of azithromycin after 6 passages by Etest method
Pseudomonas aeruginosa [12] = assay: Antimicrobial activity against mucA::lox, mutS::lox-deficient Pseudomonas aeruginosa PAOMSAB biofilm harboring nfxB C89T mutant gene selected at 4 ug/ml of azithromycin after 6 passages by Etest method
Pseudomonas aeruginosa [13] = assay: Antimicrobial activity against mutS::lox-deficient Pseudomonas aeruginosa PAOMSB biofilm harboring deletion od C534 in nfxB mutant gene selected at 4 ug/ml of azithromycin after 2 passages by Etest method
Pseudomonas aeruginosa [14] = assay: Antimicrobial activity against mucA::lox, mutS::lox-deficient Pseudomonas aeruginosa PAOMSAA biofilm harboring nfxB T86C mutant gene selected at 4 ug/ml of azithromycin after 2 passages by Etest method
Pseudomonas aeruginosa [15] = assay: Antimicrobial activity against mucA::lox, mutS::lox-deficient Pseudomonas aeruginosa PAOMSAA biofilm harboring nfxB C89T mutant gene selected at 0.5 ug/ml of azithromycin after 3 passages by Etest method
Pseudomonas aeruginosa [16] = assay: Antimicrobial activity against Pseudomonas aeruginosa PAO1 A biofilm harboring deletion mutation at nucleotide 231-244 in nfxB gene selected at 1 ug/ml of azithromycin after 4 passages by Etest method
Pseudomonas aeruginosa [17] = assay: Antimicrobial activity against mutS::lox-deficient Pseudomonas aeruginosa PAOMSA biofilm harboring nfxB C116T mutant gene selected at 1 ug/ml of azithromycin after 1 passages by Etest method
Pseudomonas aeruginosa [18] = assay: Antimicrobial activity against mexD::lox-deficient Pseudomonas aeruginosa PAOMxD biofilm by Etest method
Pseudomonas aeruginosa [19] = assay: Antimicrobial activity against mucA::lox, mutS::lox-deficient Pseudomonas aeruginosa PAOMSAA biofilm harboring nfxB T77C mutant gene selected at 4 ug/ml of azithromycin after 3 passages by Etest method
Pseudomonas aeruginosa [20] = assay: Antimicrobial activity against Pseudomonas aeruginosa PAO1 A biofilm harboring nfxB T248C mutant gene selected at 4 ug/ml of azithromycin after 4 passages by Etest method
Pseudomonas aeruginosa [21] = assay: Antimicrobial activity against mutS::lox-deficient Pseudomonas aeruginosa PAOMSB biofilm harboring nfxB T41C mutant gene selected at 4 ug/ml of azithromycin after 3 passages by Etest method
Pseudomonas aeruginosa [22] = assay: Antimicrobial activity against Pseudomonas aeruginosa PAO1 A biofilm harboring duplication mutation at nucleotide 333 in nfxB gene selected at 0.5 ug/ml of azithromycin by Etest method
Pseudomonas aeruginosa [23] = assay: Antimicrobial activity against mucA::lox-deficient Pseudomonas aeruginosa PAOMAA biofilm harboring nfxB C25T mutant gene selected at 1 ug/ml of azithromycin after 2 passages by Etest method
Pseudomonas aeruginosa [24] = assay: Antimicrobial activity against mutS::lox-deficient Pseudomonas aeruginosa PAOMSB biofilm harboring nfxB T380C mutant gene selected at 0.5 ug/ml of azithromycin after 2 passages by Etest method
Pseudomonas aeruginosa [25] = assay: Antimicrobial activity against mutS::lox-deficient Pseudomonas aeruginosa PAOMSB biofilm harboring nfxB T562C mutant gene selected at 4 ug/ml of azithromycin after 4 passages by Etest method
Pseudomonas aeruginosa [26] = assay: Antimicrobial activity against mucA::lox-deficient Pseudomonas aeruginosa PAOMAB biofilm harboring nfxB G125T mutant gene selected at 0.5 ug/ml of azithromycin after 1 passages by Etest method
Pseudomonas aeruginosa [27] = assay: Antimicrobial activity against mutS::lox-deficient Pseudomonas aeruginosa PAOMSB biofilm harboring nfxB C116T mutant gene selected at 4 ug/ml of azithromycin after 5 passages by Etest method
Pseudomonas aeruginosa [28] = assay: Antimicrobial activity against mutS::lox-deficient Pseudomonas aeruginosa PAOMSA biofilm harboring nfxB T86C mutant gene selected at 4 ug/ml of azithromycin after 3 passages by Etest method
Pseudomonas aeruginosa [29] = assay: Antimicrobial activity against mutS::lox-deficient Pseudomonas aeruginosa PAOMSB biofilm harboring nfxB T77C mutant gene selected at 4 ug/ml of azithromycin after 6 passages by Etest method
Pseudomonas aeruginosa [30] = assay: Antimicrobial activity against mutS::lox-deficient Pseudomonas aeruginosa PAOMS biofilm by Etest method
Pseudomonas aeruginosa [31] = assay: Antimicrobial activity against mucA::lox, mutS::lox-deficient Pseudomonas aeruginosa PAOMSAB biofilm harboring nfxB T86C mutant gene selected at 4 ug/ml of azithromycin after 2 passages by Etest method
Pseudomonas aeruginosa [32] = assay: Antimicrobial activity against mucA::lox, mutS::lox-deficient Pseudomonas aeruginosa PAOMSAA biofilm harboring nfxB C89T mutant gene selected at 4 ug/ml of azithromycin after 6 passages by Etest method
Pseudomonas aeruginosa [33] = assay: Antimicrobial activity against mutS::lox,nfxB gene-deficient Pseudomonas aeruginosa PAOMSNB biofilm by Etest method

Row | Molecule | MIC (Pseudomonas aeruginosa [1]) [µg/mL] | MIC (Pseudomonas aeruginosa [2]) [µg/mL] | MIC (Pseudomonas aeruginosa [3]) [µg/mL] | MIC (Pseudomonas aeruginosa [4]) [µg/mL] | MIC (Pseudomonas aeruginosa [5]) [µg/mL] | MIC (Pseudomonas aeruginosa [6]) [µg/mL] | MIC (Pseudomonas aeruginosa [7]) [µg/mL] | MIC (Pseudomonas aeruginosa [8]) [µg/mL] | MIC (Pseudomonas aeruginosa [9]) [µg/mL] | MIC (Pseudomonas aeruginosa [10]) [µg/mL] | MIC (Pseudomonas aeruginosa [11]) [µg/mL] | MIC (Pseudomonas aeruginosa [12]) [µg/mL] | MIC (Pseudomonas aeruginosa [13]) [µg/mL] | MIC (Pseudomonas aeruginosa [14]) [µg/mL] | MIC (Pseudomonas aeruginosa [15]) [µg/mL] | MIC (Pseudomonas aeruginosa [16]) [µg/mL] | MIC (Pseudomonas aeruginosa [17]) [µg/mL] | MIC (Pseudomonas aeruginosa [18]) [µg/mL] | MIC (Pseudomonas aeruginosa [19]) [µg/mL] | MIC (Pseudomonas aeruginosa [20]) [µg/mL] | further results
1 | NC[C@H]1O[C@H](O[C@H]2[C@H](O)[C@@H](O[C@H]3O[C@H](CO)[C@@H](O)[C@H](N)[C@H]3O)[C@H](N)C[C@@H]2N)[C@H](N)C[C@@H]1O [TOBRAMYCIN] | 0.38 | 1.5 (≈ 3.21 µM) | 2 (≈ 4.28 µM) | 0.75 | 1.5 (≈ 3.21 µM) | 0.25 (≈ 0.535 µM) | 1.5 | 1.5 (≈ 3.21 µM) | 1 | 0.5 | 1 | 1 | 1 | 0.5 | 0.75 | 0.38 | 1 | 1.5 (≈ 3.21 µM) | 1.5 | 0.25 | MIC (Pseudomonas aeruginosa [21]): 1 µg/mL; MIC (Pseudomonas aeruginosa [22]): 0.19 µg/mL; MIC (Pseudomonas aeruginosa [23]): 0.38 µg/mL; MIC (Pseudomonas aeruginosa [24]): 1 µg/mL; MIC (Pseudomonas aeruginosa [25]): 1.5 µg/mL; MIC (Pseudomonas aeruginosa [26]): 0.38 µg/mL; MIC (Pseudomonas aeruginosa [27]): 0.5 µg/mL; MIC (Pseudomonas aeruginosa [28]): 0.5 µg/mL; MIC (Pseudomonas aeruginosa [29]): 1 µg/mL; MIC (Pseudomonas aeruginosa [30]): 1.5 µg/mL (≈ 3.21 µM); MIC (Pseudomonas aeruginosa [31]): 0.5 µg/mL; MIC (Pseudomonas aeruginosa [32]): 0.5 µg/mL; MIC (Pseudomonas aeruginosa [33]): 0.5 µg/mL (≈ 1.07 µM)
2 | COLISTIN | 2 | 2 | 2 | 2 | 2 | 1.5 | 2 | 2 | 3 | 3 | 1.5 | 1 | 2 | 3 | 1 | 2 | 2 | 2 | 2 | 1.5 | MIC (Pseudomonas aeruginosa [21]): 2 µg/mL; MIC (Pseudomonas aeruginosa [22]): 1.5 µg/mL; MIC (Pseudomonas aeruginosa [23]): 1 µg/mL; MIC (Pseudomonas aeruginosa [24]): 2 µg/mL; MIC (Pseudomonas aeruginosa [25]): 3 µg/mL; MIC (Pseudomonas aeruginosa [26]): 1 µg/mL; MIC (Pseudomonas aeruginosa [27]): 1.5 µg/mL; MIC (Pseudomonas aeruginosa [28]): 2 µg/mL; MIC (Pseudomonas aeruginosa [29]): 0.5 µg/mL; MIC (Pseudomonas aeruginosa [30]): 2 µg/mL; MIC (Pseudomonas aeruginosa [31]): 2 µg/mL; MIC (Pseudomonas aeruginosa [32]): 2 µg/mL; MIC (Pseudomonas aeruginosa [33]): 1.5 µg/mL
